Tests used:
Type in all cases: in vivo
Pharbitis purpurea [1] = test: Post-emergence herbicidal action, PHBPU
Procedure, shortened: (§1)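 Percent herbicidal effect was judged by eye against untreated controls around 3 weeks after foliar treatment, where 100% meant dead plants. Spraying took place at the one-leaf stage using wettable powder or emulsion concentrate diluted in water (600 to 800 l/ha) with added wetting agent at 0.2%.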

Amaranthus retroflexus = test: Post-emergence herbicidal action, AMARE; parameters: key: % herbicidal action vs untreated; 100 = plants died, 0 = like control
Procedure, shortened: as §1

Setaria viridis [2] = test: Post-emergence herbicidal action, SETVI; parameters: key: % herbicidal action vs untreated; 100 = plants died, 0 = like control
Procedure, shortened: as §1

Echinochloa crus-galli = test: Pre-emergence herbicidal action, ECHCG; parameters: key to Herbicidal action against ECHCG: % activity: 100 = plants have died, 0 = like control plants; conditions: for herbicidal action ECHCG / herbicidal activity ECHCG: dosage 320 g/ha; for herbicidal activity ECHCG: scored visually after 3 weeks vs untreated controls (100% = plants have died); for Herbicidal action against ECHCG: comparative experiment
Procedure, shortened: (§2)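 Visual scoring after 3 weeks in the greenhouse, relative to untreated pots, gave percent activity, where 100% means dead plants and 0% equals controls. Treatment was a pre-emergence soil-surface spray of WP or EC formulations in water (600 to 800 l/ha, 0.2% wetting agent) over seeds covered in sandy loam.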

Setaria viridis [3] = test: Pre-emergence herbicidal action, SETVI; parameters: key to Herbicidal action against SETVI: % activity: 100 = plants have died, 0 = like control plants; conditions: for herbicidal activity SETVI / herbicidal action SETVI: dosage 320 g/ha; for herbicidal activity SETVI: scored visually after 3 weeks vs untreated controls (100% = plants have died); for Herbicidal action against SETVI: comparative experiment
Procedure, shortened: as §2

Pharbitis purpurea [4] = test: Pre-emergence herbicidal action, PHBPU; conditions: dosage 320 g/ha, scored visually after 3 weeks vs untreated controls (100% = plants have died)
Procedure, shortened: as §2

[5] = comparative experiment, post-emergence, 20 g of a.i./ha

Compound | herbicidal action PHBPU (Pharbitis purpurea [1]; Dosage 80 g/ha) | herbicidal action AMARE (Amaranthus retroflexus; Dosage 80 g/ha) | herbicidal action SETVI (Setaria viridis [2]; Dosage 80 g/ha) | herbicidal action ECHCG (Echinochloa crus-galli) [%] | herbicidal activity SETVI (Setaria viridis [3]) [%] | herbicidal action PHBPU (Pharbitis purpurea [1]; post-emergence, dosage 80 g/ha) [%] | herbicidal action AMARE (Amaranthus retroflexus; post-emergence, dosage 80 g/ha) [%] | herbicidal action SETVI (Setaria viridis [2]; post-emergence, dosage 80 g/ha) [%] | herbicidal activity ECHCG (Echinochloa crus-galli) [%] | herbicidal action SETVI (Setaria viridis [3]) [%] | also measured
Cc1ccc(C(=O)Nc2nnnn2C)c(Cl)c1C[S+](C)[O-] (racemic) [Example 1-288] | 90 | 100 | 100 | 90 |  |  |  |  |  |  | 
CC[S+]([O-])Cc1c(C(F)(F)F)ccc(C(=O)Nc2nnnn2C)c1Cl (racemic) [Example 1-300] |  |  |  |  | 100 | 90 | 100 | 90 | 100 |  | herbicidal activity PHBPU (Pharbitis purpurea [4]): 100%
Cn1nnnc1NC(=O)c1ccc(C(F)(F)F)c(C[S+]([O-])C2CC2)c1Cl (racemic) [Example 1-303] |  |  |  |  | 100 | 100 | 100 | 100 | 100 |  | herbicidal activity PHBPU (Pharbitis purpurea [4]): 100%
Cc1c(C(=O)Nc2nnnn2C)ccc(C(F)F)c1C[S+](C)[O-] (stereo not shown) [Example 1-108] | 90 | 100 | 80 | 100 |  |  |  |  |  | 100 | 
COc1c(C(=O)Nc2nnnn2C)ccc(C(F)(F)F)c1C[S+](C)[O-] (stereo not shown) [Example 1-135] | 90 | 100 | 100 | 100 |  |  |  |  |  |  | 
CSCc1c(C)ccc(C(=O)Nc2nnnn2C)c1Cl [Example 1-287] |  | 100 | 90 | 80 |  |  |  |  |  | 90 | 
CCS(=O)(=O)Cc1c(C(F)F)ccc(C(=O)Nc2nnnn2C)c1Cl [Example 1-325] | 100 |  | 100 |  | 100 |  |  |  | 100 |  | herbicidal activity PHBPU (Pharbitis purpurea [4]): 100%
Cn1nnnc1NC(=O)c1ccc(I)c(CS(C)(=O)=O)c1Cl [Example 1-364] |  | 100 | 100 |  | 100 |  |  |  | 100 |  | Herbicidal action against SETVI (Setaria viridis [3]; 20 g of a.i./ha): 100; herbicidal activity PHBPU (Pharbitis purpurea [4]): 90%; Herbicidal action against ECHCG (Echinochloa crus-galli; 20 g of a.i./ha): 90
CCS(=O)(=O)Cc1c(C(F)(F)F)ccc(C(=O)Nc2nnnn2C)c1Br [Example 1-385] |  |  |  |  | 100 | 90 | 90 | 100 | 100 |  | Herbicidal action against SETVI (Setaria viridis [3]; 80 g of a.i./ha): 90; Herbicidal action against PHBPU (Pharbitis purpurea [1]; [5]): 80; Herbicidal action against AMARE (Amaranthus retroflexus; [5]): 90; Herbicidal action against SETVI (Setaria viridis [2]; [5]): 90; Herbicidal action against ECHCG (Echinochloa crus-galli; 80 g of a.i./ha): 100
CSCc1c(Cl)ccc(C(=O)Nc2nnnn2C)c1Cl [Example 1-559] |  |  |  | 100 |  | 100 | 100 | 100 |  | 80 | 
COc1c(C(=O)Nc2nnnn2C)ccc(Cl)c1CSC [Example 1-570] |  |  |  | 90 |  |  |  |  |  |  | Herbicidal action against PHBPU (Pharbitis purpurea [1]; post-emergence, dosage 80 g/ha): 90; Herbicidal action against AMARE (Amaranthus retroflexus; post-emergence, dosage 80 g/ha): 90; Herbicidal action against SETVI (Setaria viridis [2]; post-emergence, dosage 80 g/ha): 80
CCSCc1c(C(F)(F)F)ccc(C(=O)Nc2nnnn2CC)c1C [Example 2-86] |  |  |  | 100 |  | 90 | 80 | 90 |  | 100 | 
CCn1nnnc1NC(=O)c1ccc(C(F)(F)F)c(CS(=O)(=O)CC)c1C [Example 2-88] | 90 | 90 | 90 | 100 |  |  |  |  |  | 100 | 
CCn1nnnc1NC(=O)c1ccc(C(F)F)c(C[S+](C)[O-])c1C (stereo not shown) [Example 2-108] | 100 | 100 | 90 | 90 |  |  |  |  |  | 100 | 
CCn1nnnc1NC(=O)c1ccc(C(F)F)c(CSC)c1SC [Example 2-170] | 90 | 100 | 90 |  | 100 |  |  |  | 100 |  | 
CCn1nnnc1NC(=O)c1ccc(S(C)(=O)=O)c(CS(C)(=O)=O)c1Cl [Example 2-280] |  |  |  | 100 |  |  |  |  |  | 90 | Herbicidal action against PHBPU (Pharbitis purpurea [1]; post-emergence, dosage 80 g/ha): 90; Herbicidal action against AMARE (Amaranthus retroflexus; post-emergence, dosage 80 g/ha): 90; Herbicidal action against SETVI (Setaria viridis [2]; post-emergence, dosage 80 g/ha): 80
